Laboratory results from BindingDB's records for doi:10.7270/Q2N014XN (Srmlsc, 2007).
pIC50: −log10 of the molar value.

Molecular target: T1, Diphosphomevalonate decarboxylase (Streptococcus pneumoniae serotype 2 (strain D39 / NCTC 7466), UniProt A0A0H2ZN59)
T1 sequence (A0A0H2ZN59 whole entry): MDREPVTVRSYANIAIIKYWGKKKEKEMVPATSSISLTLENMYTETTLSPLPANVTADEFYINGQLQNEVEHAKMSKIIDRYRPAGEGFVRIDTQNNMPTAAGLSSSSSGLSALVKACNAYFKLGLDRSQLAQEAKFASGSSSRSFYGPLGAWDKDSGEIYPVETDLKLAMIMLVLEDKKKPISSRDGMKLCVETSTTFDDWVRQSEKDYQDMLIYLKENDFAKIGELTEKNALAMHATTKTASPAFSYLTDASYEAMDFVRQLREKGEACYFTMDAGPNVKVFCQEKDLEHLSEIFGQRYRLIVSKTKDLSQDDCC
Test: S. pneumoniae DPM-DC inhibitor potency, dose response, biochemical, PK/LDH-coupled NADH fluorescence, hexokinase coupling counter-screen (AID 550)

| Compound | pIC50 | pIC50 (inactive by the depositor's call) |
| --- | --- | --- |
| CC(C)(C)n1nnnc1C(c1cc2cc3c(cc2[nH]c1=O)OCO3)N1CCN(c2ccccc2)CC1 (configuration not stated) [7-[(1-tert-butyl-1,2,3,4-tetrazol-5-yl)-(4-phenylpiperazin-1-yl)methyl]-5H-[1,3]dioxolo[4,5-g]quinolin-6-one] | 4.24 |  |
| COc1ccccc1N1CCN(C(=O)CSc2nnc(NC(=O)c3ccco3)s2)CC1 [Furan-2-carboxylic acid (5-{2-[4-(2-methoxy-phenyl)-piperazin-1-yl]-2-oxo-ethylsulfanyl}-[1,3,4]thiadiazol-2-yl)-amide] | 3.58 |  |
| COc1ccccc1-c1nc(C(N)=O)c2[nH]c(=O)n(-c3cccc(C)c3)c2n1 [MLS000094139] | 4.67 |  |
| Cc1cc(=O)oc2cc(OC(C)C(=O)O)c(Cl)cc12 (configuration not stated) [2-(6-chloranyl-4-methyl-2-oxidanylidene-chromen-7-yl)oxypropanoic acid] | < 2.00 |  |
| Cc1ccc2cc3cc(C(=O)N4CCCCCC4)oc3nc2c1 [1-azepanyl-(7-methyl-2-furo[2,3-b]quinolinyl)methanone] | 4.24 |  |
| O=C(NCc1cccnc1)c1ccc2c(=O)n(CCCN3CCCC3=O)c(=S)[nH]c2c1 [4-oxidanylidene-3-[3-(2-oxidanylidenepyrrolidin-1-yl)propyl]-N-(pyridin-3-ylmethyl)-2-sulfanylidene-1H-quinazoline-7-carboxamide] | < 2.00 |  |
| Cn1c(=O)[nH]c(=O)c2c1nc(NC1CCCCC1)n2Cc1ccccc1 [MLS000083828] | < 2.00 |  |
| CCC(=O)N(Cc1cc2cc(OC)ccc2[nH]c1=O)c1cc(C)ccc1C | 4.05 |  |
| O=C(CSc1nnc2ccccn12)Nc1ccccc1C(=O)NC1CC1 [MLS000056825] | < 2.00 |  |
| Cc1ccc(C2C3=C(CC(C)(C)CC3=O)N(CCN3CCOCC3)C3=C2C(=O)CC(C)(C)C3)cc1 | < 2.00 |  |
| Nc1nc2c(s1)CCc1c-2cnn1-c1ccccc1 [MLS000085948] |  | 5.02 |
| CCN(CC)CCCN(Cc1cc2cc3c(cc2[nH]c1=O)OCO3)C(=O)Nc1ccccc1OC [1-[3-(diethylamino)propyl]-3-(2-methoxyphenyl)-1-[(6-oxidanylidene-5H-[1,3]dioxolo[4,5-g]quinolin-7-yl)methyl]urea] | 4.47 |  |
| N#Cc1c(C(F)(F)F)cc(-c2ccco2)nc1SCc1ccncc1 [6-(2-furanyl)-2-(pyridin-4-ylmethylthio)-4-(trifluoromethyl)-3-pyridinecarbonitrile] | < 2.00 |  |
| CCCCCn1c(SCC#N)nc2cc(C(=O)NCC3CCCO3)ccc2c1=O (configuration not stated) [2-(cyanomethylsulfanyl)-4-oxidanylidene-N-(oxolan-2-ylmethyl)-3-pentyl-quinazoline-7-carboxamide] | < 2.00 |  |
| CC(O)COc1ccc(C(N=O)c2ccccc2)cc1 (configuration not stated) [(E)-[4-(2-hydroxypropoxy)phenyl](phenyl)methanone oxime] | < 2.00 |  |
| Cc1cc(N2CCN(C3CCCC3)CC2)n2nc(C)c(-c3ccccc3)c2n1 [7-(4-cyclopentyl-1-piperazinyl)-2,5-dimethyl-3-phenylpyrazolo[1,5-a]pyrimidine] | < 2.00 |  |
| COc1ccc2[nH]c(=O)c(CN(CC3CCCO3)C(=O)Nc3ccccc3)cc2c1 (configuration not stated) | 4.09 |  |
| O=C(CSc1nnnn1Cc1ccccc1)NCCc1ccccc1 [2-(1-Benzyl-1H-tetrazol-5-ylsulfanyl)-N-phenethyl-acetamide] | < 2.00 |  |
| Cc1cc(-c2ccccc2)nc(N2CCC(C(=O)NC(C)C)CC2)n1 [1-(4-Methyl-6-phenyl-pyrimidin-2-yl)-piperidine-4-carboxylic acid isopropylamide] | 4.16 |  |
| COc1ccc2c(c1)C1(C)CC(C)(C)N2C(=O)N1c1ccccc1 (configuration not stated) [MLS000027457] | 3.74 |  |
| CCOC(=O)c1cc2c(=O)n3cccc(C)c3nc2n(CCc2ccccc2)c1=N [2-imino-10-methyl-5-oxo-1-(2-phenylethyl)-3-dipyrido[3,4-c:1',2'-f]pyrimidinecarboxylic acid ethyl ester] | 4.56 |  |
| CC(NC(=O)c1cccc(N2CCCC2=O)c1)c1ccc2c(c1)OCCO2 (configuration not stated) [MLS000046772] | < 2.00 |  |
